Literature values as cited in patent publication US20250375548A1, “STERILIZATION PROCESS, SYSTEM AND PRODUCT INCLUDING MOLECULAR MOBILITY ENHANCER” (TEKDRY INTERNATIONAL, INC., priority 2019, published 2025).

Experiments:
[1] = @ 25° C.
[2] = 1,800 ppm at 44° C.

Row | SMILES | vapor pressure [1] | D-value [2]
1 | CCOCC [diethyl ether] | 520 mmHg | –
2 | CC(=O)OO [peracetic acid, reference compound] | 14.5 mmHg | –
3 | O=COO [performic acid] | 78 mmHg | lower than five
